Experimental data from PubChem BioAssay AID2060626 (Molecular Pharmacology Branch, DTP, NCI, 2025).

Test system: 168753-222-R-J1-PDC complex spheroid viability
Assay: Anticancer human tumor 168753-222-R-J1-PDC patient-derived bladder carcinoma cell line growth inhibition [CLK]
Details: for IC50: curve of first compound; for viability, T/C: stronger effect = lower value
Procedure, shortened: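 Multi-cell-type spheroids combined patient-derived tumor cells with HUVEC endothelial cells and human mesenchymal stem cells. Paired agents were dosed in half-log steps down from about clinical Cmax, or from 10 microM where Cmax was unknown.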

[1] = second compound 0.0316 µM, first compound 0.0316 µM
[2] = second compound 0.0316 µM, first compound 0.1 µM
[3] = second compound 0.0316 µM, first compound 0.316 µM
[4] = second compound 0.0316 µM, first compound 1 µM
[5] = second compound 0.1 µM, first compound 0.0316 µM
[6] = second compound 0.1 µM, first compound 0.1 µM
[7] = second compound 0.1 µM, first compound 0.316 µM
[8] = second compound 0.1 µM, first compound 1 µM
[9] = second compound 0.316 µM, first compound 0.0316 µM
[10] = second compound 0.316 µM, first compound 0.1 µM
[11] = second compound 0.316 µM, first compound 0.316 µM
[12] = second compound 0.316 µM, first compound 1 µM
[13] = second compound 1 µM, first compound 0.0316 µM
[14] = second compound 1 µM, first compound 0.1 µM
[15] = second compound 1 µM, first compound 0.316 µM
[16] = second compound 1 µM, first compound 1 µM
[17] = second compound 3.16 µM, first compound 0.0316 µM
[18] = second compound 3.16 µM, first compound 0.1 µM
[19] = second compound 3.16 µM, first compound 0.316 µM
[20] = second compound 3.16 µM, first compound 1 µM
[21] = second compound 10 µM, first compound 0.0316 µM
[22] = second compound 10 µM, first compound 0.1 µM
[23] = second compound 10 µM, first compound 0.316 µM
[24] = second compound 10 µM, first compound 1 µM
[25] = second compound 0.0316 µM, first compound 0.00316 µM
[26] = second compound 0.0316 µM, first compound 0.01 µM
[27] = second compound 0.1 µM, first compound 0.00316 µM
[28] = second compound 0.1 µM, first compound 0.01 µM
[29] = second compound 0.316 µM, first compound 0.00316 µM
[30] = second compound 0.316 µM, first compound 0.01 µM
[31] = second compound 1 µM, first compound 0.00316 µM
[32] = second compound 1 µM, first compound 0.01 µM
[33] = second compound 3.16 µM, first compound 0.00316 µM
[34] = second compound 3.16 µM, first compound 0.01 µM
[35] = second compound 10 µM, first compound 0.00316 µM
[36] = second compound 10 µM, first compound 0.01 µM
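Note: viability measured after seven days of drug exposure.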
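Throughout, for viability, T/C: luminescence signal used as surrogate for viable cell amount; 100% = DMSO vehicle control wells.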

## CC(Nc1ccc2c(c1)OCCn1cc(N3C(=O)OCC3C(F)F)nc1-2)C(N)=O (stereo unspecified) + CN1CCN(c2cc(C(=O)Nc3cc4cc(-c5cnn(C)c5)ccc4cn3)ccn2)CC1
Second compound 0.0316 µM
  IC50: 65.7 nM
Second compound 0.1 µM
  IC50: < 31.6 nM
Second compound 0.316 µM
  IC50: < 31.6 nM
Second compound 1 µM
  IC50: < 31.6 nM
Second compound 3.16 µM
  IC50: < 31.6 nM
Second compound 10 µM
  IC50: < 31.6 nM
[1]
  viability, T/C: 72.8%
[2]
  viability, T/C: 37%
[3]
  viability, T/C: 15%
[4]
  viability, T/C: 12.5%
Second compound 0.0316 µM, first compound 3.16 µM
  viability, T/C: 9.81%
Second compound 0.0316 µM, first compound 10 µM
  viability, T/C: 9.9%
[5]
  viability, T/C: 41.8%
[6]
  viability, T/C: 18.2%
[7]
  viability, T/C: 12.3%
[8]
  viability, T/C: 8.91%
Second compound 0.1 µM, first compound 3.16 µM
  viability, T/C: 7%
Second compound 0.1 µM, first compound 10 µM
  viability, T/C: 7.78%
[9]
  viability, T/C: 15.9%
[10]
  viability, T/C: 10.2%
[11]
  viability, T/C: 7.13%
[12]
  viability, T/C: 1.63%
Second compound 0.316 µM, first compound 3.16 µM
  viability, T/C: 0.95%
Second compound 0.316 µM, first compound 10 µM
  viability, T/C: 0.77%
[13]
  viability, T/C: 0.37%
[14]
  viability, T/C: 0.22%
[15]
  viability, T/C: 0.1%
[16]
  viability, T/C: 0.05%
Second compound 1 µM, first compound 3.16 µM
  viability, T/C: 0.08%
Second compound 1 µM, first compound 10 µM
  viability, T/C: 0.08%
[17]
  viability, T/C: 0.12%
[18]
  viability, T/C: 0.1%
[19]
  viability, T/C: 0.35%
[20]
  viability, T/C: 0.06%
Second compound 3.16 µM, first compound 3.16 µM
  viability, T/C: 2.39%
Second compound 3.16 µM, first compound 10 µM
  viability, T/C: 0.59%
[21]
  viability, T/C: 0.05%
[22]
  viability, T/C: 0.11%
[23]
  viability, T/C: 1.89%
[24]
  viability, T/C: 0.11%
Second compound 10 µM, first compound 3.16 µM
  viability, T/C: 0.27%
Second compound 10 µM, first compound 10 µM
  viability, T/C: 0.33%

## CCN1CCN(Cc2ccc(Nc3ncc(F)c(-c4cc(F)c5nc(C)n(C(C)C)c5c4)n3)nc2)CC1 + CNC(=O)c1ccc(Nc2nc(OC3CCCC3)c3c(-c4ccc5nc(C)oc5c4)c[nH]c3n2)c(OC)c1
Second compound 0.0316 µM
  IC50: > 1000 nM
Second compound 0.1 µM
  IC50: > 1000 nM
Second compound 0.316 µM
  IC50: 85.5 nM
Second compound 1 µM
  IC50: < 3.16 nM
Second compound 3.16 µM
  IC50: < 3.16 nM
Second compound 10 µM
  IC50: < 3.16 nM
[25]
  viability, T/C: 103%
[26]
  viability, T/C: 104%
[1]
  viability, T/C: 79.3%
[2]
  viability, T/C: 77%
[3]
  viability, T/C: 65.5%
[4]
  viability, T/C: 67.1%
[27]
  viability, T/C: 92.9%
[28]
  viability, T/C: 88.5%
[5]
  viability, T/C: 78.8%
[6]
  viability, T/C: 70.1%
[7]
  viability, T/C: 70.4%
[8]
  viability, T/C: 55.7%
[29]
  viability, T/C: 83.6%
[30]
  viability, T/C: 77%
[9]
  viability, T/C: 67.2%
[10]
  viability, T/C: 46.3%
[11]
  viability, T/C: 43%
[12]
  viability, T/C: 44.6%
[31]
  viability, T/C: 25.2%
[32]
  viability, T/C: 46.9%
[13]
  viability, T/C: 25.2%
[14]
  viability, T/C: 22.5%
[15]
  viability, T/C: 19.4%
[16]
  viability, T/C: 26.4%
[33]
  viability, T/C: 26.3%
[34]
  viability, T/C: 20.9%
[17]
  viability, T/C: 18.8%
[18]
  viability, T/C: 15.4%
[19]
  viability, T/C: 17%
[20]
  viability, T/C: 17.7%
[35]
  viability, T/C: 17.4%
[36]
  viability, T/C: 19.6%
[21]
  viability, T/C: 17.4%
[22]
  viability, T/C: 14.6%
[23]
  viability, T/C: 15.1%
[24]
  viability, T/C: 18.2%

## CCN1CCN(Cc2ccc(Nc3ncc(F)c(-c4cc(F)c5nc(C)n(C(C)C)c5c4)n3)nc2)CC1 + CN1CCN(c2cc(C(=O)Nc3cc4cc(-c5cnn(C)c5)ccc4cn3)ccn2)CC1
Second compound 0.0316 µM
  IC50: 8.23 nM
Second compound 0.1 µM
  IC50: 7.04 nM
Second compound 0.316 µM
  IC50: < 3.16 nM
Second compound 1 µM
  IC50: < 3.16 nM
Second compound 3.16 µM
  IC50: < 3.16 nM
Second compound 10 µM
  IC50: < 3.16 nM
[25]
  viability, T/C: 76.3%
[26]
  viability, T/C: 44.8%
[1]
  viability, T/C: 29.6%
[2]
  viability, T/C: 36.7%
[3]
  viability, T/C: 22.4%
[4]
  viability, T/C: 26.2%
[27]
  viability, T/C: 76.5%
[28]
  viability, T/C: 38.7%
[5]
  viability, T/C: 20.5%
[6]
  viability, T/C: 19.9%
[7]
  viability, T/C: 17.4%
[8]
  viability, T/C: 12.6%
[29]
  viability, T/C: 11.4%
[30]
  viability, T/C: 9.45%
[9]
  viability, T/C: 8.81%
[10]
  viability, T/C: 8.47%
[11]
  viability, T/C: 10.7%
[12]
  viability, T/C: 12.1%
[31]
  viability, T/C: 0.18%
[32]
  viability, T/C: 0.21%
[13]
  viability, T/C: 1.13%
[14]
  viability, T/C: 0.13%
[15]
  viability, T/C: 1.24%
[16]
  viability, T/C: 0.34%
[33]
  viability, T/C: 0.09%
[34]
  viability, T/C: 0.13%
[17]
  viability, T/C: 0.44%
[18]
  viability, T/C: 0.08%
[19]
  viability, T/C: 1.18%
[20]
  viability, T/C: 0.99%
[35]
  viability, T/C: 0.11%
[36]
  viability, T/C: 0.29%
[21]
  viability, T/C: 0.24%
[22]
  viability, T/C: 0.13%
[23]
  viability, T/C: 1.1%
[24]
  viability, T/C: 1.36%
